PubChem BioAssay AID1259407 (Chemical Carcinogenesis Research Information System (CCRIS), 2018)
Active and inactive are the calls of the source. The rule behind the calls is not given here.

Test system: CCRIS mutagenicity, Ames/micronucleus/aberration tests
Assay: CCRIS mutagenicity studies
[1] = Test System: AMES SALMONELLA TYPHIMURIUM, Strain/Indicator: TA98, Metabolic Activation: HAMSTER, LIVER, S-9, AROCLOR 1254, Method: PREINCUBATION
[2] = Test System: AMES SALMONELLA TYPHIMURIUM, Strain/Indicator: TA98, Metabolic Activation: NONE, Method: PREINCUBATION
[3] = Test System: AMES SALMONELLA TYPHIMURIUM, Strain/Indicator: TA98, Metabolic Activation: RAT, LIVER, S-9, AROCLOR 1254, Method: PREINCUBATION
[4] = Test System: AMES SALMONELLA TYPHIMURIUM, Strain/Indicator: TA100, Metabolic Activation: HAMSTER, LIVER, S-9, AROCLOR 1254, Method: PREINCUBATION
[5] = Test System: AMES SALMONELLA TYPHIMURIUM, Strain/Indicator: TA100, Metabolic Activation: NONE, Method: PREINCUBATION
[6] = Test System: AMES SALMONELLA TYPHIMURIUM, Strain/Indicator: TA100, Metabolic Activation: NONE, Method: STANDARD PLATE
[7] = Test System: AMES SALMONELLA TYPHIMURIUM, Strain/Indicator: TA100, Metabolic Activation: RAT, LIVER, S-9, AROCLOR 1254, Method: PREINCUBATION
[8] = Test System: AMES SALMONELLA TYPHIMURIUM, Strain/Indicator: TA1535, Metabolic Activation: HAMSTER, LIVER, S-9, AROCLOR 1254, Method: PREINCUBATION
[9] = Test System: AMES SALMONELLA TYPHIMURIUM, Strain/Indicator: TA1535, Metabolic Activation: NONE, Method: PREINCUBATION
[10] = Test System: AMES SALMONELLA TYPHIMURIUM, Strain/Indicator: TA1535, Metabolic Activation: RAT, LIVER, S-9, AROCLOR 1254, Method: PREINCUBATION
[11] = Test System: AMES SALMONELLA TYPHIMURIUM, Strain/Indicator: TA1537, Metabolic Activation: HAMSTER, LIVER, S-9, AROCLOR 1254, Method: PREINCUBATION
[12] = Test System: AMES SALMONELLA TYPHIMURIUM, Strain/Indicator: TA1537, Metabolic Activation: NONE, Method: PREINCUBATION
[13] = Test System: AMES SALMONELLA TYPHIMURIUM, Strain/Indicator: TA1537, Metabolic Activation: RAT, LIVER, S-9, AROCLOR 1254, Method: PREINCUBATION
[14] = Test System: AMES SALMONELLA TYPHIMURIUM, Strain/Indicator: TA98, Metabolic Activation: NONE, Method: STANDARD PLATE
[15] = Test System: AMES SALMONELLA TYPHIMURIUM, Strain/Indicator: TA98, Metabolic Activation: RAT, LIVER, S-9, AROCLOR 1254, Method: STANDARD PLATE
[16] = Test System: AMES SALMONELLA TYPHIMURIUM, Strain/Indicator: TA1535, Metabolic Activation: NONE, Method: STANDARD PLATE
[17] = Test System: AMES SALMONELLA TYPHIMURIUM, Strain/Indicator: TA1538, Metabolic Activation: NONE, Method: STANDARD PLATE

## O=[N+]([O-])c1cccc(Cl)c1Cl
[1]
  mutagenic call: inactive; negative
[2]
  mutagenic call: inactive; negative
[3]
  mutagenic call: inactive; negative
[4]
  mutagenic call: inactive; negative
[5]
  mutagenic call: inactive; negative
[6]
  mutagenic call: inactive; negative
[7]
  mutagenic call: inactive; negative
[8]
  mutagenic call: inactive; negative
[9]
  mutagenic call: inactive; negative
[10]
  mutagenic call: inactive; negative
[11]
  mutagenic call: inactive; negative
[12]
  mutagenic call: inactive; negative
[13]
  mutagenic call: inactive; negative

## CC(C)CNC(=O)C=Cc1ccc([N+](=O)[O-])o1
[2]
  mutagenic call: active; positive

## Clc1ccc(C(Cl)(Cl)Cl)c(Cl)c1
Test System: AMES SALMONELLA TYPHIMURIUM, Strain/Indicator: TA98, Metabolic Activation: HAMSTER, LIVER, S-9, AROCLOR 1254 (30%), Method: PREINCUBATION
  mutagenic call: active; positive
[2]
  mutagenic call: inactive; negative
Test System: AMES SALMONELLA TYPHIMURIUM, Strain/Indicator: TA98, Metabolic Activation: RAT, LIVER, S-9, AROCLOR 1254 (30%), Method: PREINCUBATION
  mutagenic call: active; positive
Test System: AMES SALMONELLA TYPHIMURIUM, Strain/Indicator: TA100, Metabolic Activation: HAMSTER, LIVER, S-9, AROCLOR 1254 (30%), Method: PREINCUBATION
  mutagenic call: active; positive
[5]
  mutagenic call: inactive; negative
Test System: AMES SALMONELLA TYPHIMURIUM, Strain/Indicator: TA100, Metabolic Activation: RAT, LIVER, S-9, AROCLOR 1254 (30%), Method: PREINCUBATION
  mutagenic call: active; positive

## C1=CC2=C3OC3=C3c4ccc5ccccc5c4CC(=C1)C23 (stereo not given)
[14]
  mutagenic call: active; positive
[15]
  mutagenic call: active; positive

## CC(C)N(C(=O)SC/C(Cl)=C/Cl)C(C)C
[14]
  mutagenic call: inactive; negative
[15]
  mutagenic call: active; positive
[6]
  mutagenic call: inactive; negative
Test System: AMES SALMONELLA TYPHIMURIUM, Strain/Indicator: TA100, Metabolic Activation: RAT, LIVER, S-9, AROCLOR 1254, Method: STANDARD PLATE
  mutagenic call: active; positive
[16]
  mutagenic call: inactive; negative
Test System: AMES SALMONELLA TYPHIMURIUM, Strain/Indicator: TA1535, Metabolic Activation: RAT, LIVER, S-9, AROCLOR 1254, Method: STANDARD PLATE
  mutagenic call: active; positive
Test System: AMES SALMONELLA TYPHIMURIUM, Strain/Indicator: TA1537, Metabolic Activation: NONE, Method: STANDARD PLATE
  mutagenic call: inactive; negative
Test System: AMES SALMONELLA TYPHIMURIUM, Strain/Indicator: TA1537, Metabolic Activation: RAT, LIVER, S-9, AROCLOR 1254, Method: STANDARD PLATE
  mutagenic call: inactive; negative
[17]
  mutagenic call: inactive; negative
Test System: AMES SALMONELLA TYPHIMURIUM, Strain/Indicator: TA1538, Metabolic Activation: RAT, LIVER, S-9, AROCLOR 1254, Method: STANDARD PLATE
  mutagenic call: inactive; negative

## O=C1c2c(O)ccc(O)c2C(=O)c2c(NCCNCCO)ccc(NCCNCCO)c21
Test System: AMES SALMONELLA TYPHIMURIUM, Strain/Indicator: TA97, Metabolic Activation: NONE, Method: STANDARD PLATE
  mutagenic call: inactive; negative
Test System: AMES SALMONELLA TYPHIMURIUM, Strain/Indicator: TA97, Metabolic Activation: RAT, LIVER, S-9, PHENOBARBITAL AND ALPHA-NAPHTHOFLAVONE, Method: STANDARD PLATE
  mutagenic call: inactive; negative
Test System: AMES SALMONELLA TYPHIMURIUM, Strain/Indicator: TA97A, Metabolic Activation: NONE, Method: STANDARD PLATE
  mutagenic call: inactive; negative
[14]
  mutagenic call: active; positive
Test System: AMES SALMONELLA TYPHIMURIUM, Strain/Indicator: TA98, Metabolic Activation: RAT, LIVER, S-9, PHENOBARBITAL AND ALPHA-NAPHTHOFLAVONE, Method: STANDARD PLATE
  mutagenic call: active; positive
[6]
  mutagenic call: inactive; negative
Test System: AMES SALMONELLA TYPHIMURIUM, Strain/Indicator: TA100, Metabolic Activation: RAT, LIVER, S-9, PHENOBARBITAL AND ALPHA-NAPHTHOFLAVONE, Method: STANDARD PLATE
  mutagenic call: inactive; negative
[16]
  mutagenic call: inactive; negative
Test System: AMES SALMONELLA TYPHIMURIUM, Strain/Indicator: TA1535, Metabolic Activation: RAT, LIVER, S-9, PHENOBARBITAL AND ALPHA-NAPHTHOFLAVONE, Method: STANDARD PLATE
  mutagenic call: inactive; negative
[17]
  mutagenic call: active; positive
Test System: MOUSE LYMPHOMA, Strain/Indicator: L5178Y (TK+/TK-), Metabolic Activation: NONE, Method: SUSPENSION/PLATE
  mutagenic call: active; positive
Test System: MOUSE LYMPHOMA, Strain/Indicator: L5178Y (TK+/TK-), Metabolic Activation: RAT, LIVER, S-9, AROCLOR 1242 AND 1254 (2:1), Method: SUSPENSION/PLATE
  mutagenic call: active; positive

## COC(=O)CN(CC(=O)OC)C1C[C@H]1N(CC(=O)OC)CC(=O)OC (stereo not given in full)
Test System: CHINESE HAMSTER V-79, Strain/Indicator: V-79/OUABAIN, Metabolic Activation: NONE, Method: STANDARD PLATE
  mutagenic call: active; positive

## CC(C)CN
Test System: AMES SALMONELLA TYPHIMURIUM, Strain/Indicator: TA98, Metabolic Activation: HAMSTER, LIVER, S-9, AROCLOR 1254 (10%), Method: PREINCUBATION
  mutagenic call: inactive; negative
[2]
  mutagenic call: inactive; negative
Test System: AMES SALMONELLA TYPHIMURIUM, Strain/Indicator: TA98, Metabolic Activation: RAT, LIVER, S-9, AROCLOR 1254 (10%), Method: PREINCUBATION
  mutagenic call: inactive; negative
Test System: AMES SALMONELLA TYPHIMURIUM, Strain/Indicator: TA100, Metabolic Activation: HAMSTER, LIVER, S-9, AROCLOR 1254 (10%), Method: PREINCUBATION
  mutagenic call: inactive; negative
[5]
  mutagenic call: inactive; negative
Test System: AMES SALMONELLA TYPHIMURIUM, Strain/Indicator: TA100, Metabolic Activation: RAT, LIVER, S-9, AROCLOR 1254 (10%), Method: PREINCUBATION
  mutagenic call: inactive; negative
Test System: AMES SALMONELLA TYPHIMURIUM, Strain/Indicator: TA1535, Metabolic Activation: HAMSTER, LIVER, S-9, AROCLOR 1254 (10%), Method: PREINCUBATION
  mutagenic call: inactive; negative
[9]
  mutagenic call: inactive; negative
Test System: AMES SALMONELLA TYPHIMURIUM, Strain/Indicator: TA1535, Metabolic Activation: RAT, LIVER, S-9, AROCLOR 1254 (10%), Method: PREINCUBATION
  mutagenic call: inactive; negative
Test System: AMES SALMONELLA TYPHIMURIUM, Strain/Indicator: TA1537, Metabolic Activation: HAMSTER, LIVER, S-9, AROCLOR 1254 (10%), Method: PREINCUBATION
  mutagenic call: inactive; negative
[12]
  mutagenic call: inactive; negative
Test System: AMES SALMONELLA TYPHIMURIUM, Strain/Indicator: TA1537, Metabolic Activation: RAT, LIVER, S-9, AROCLOR 1254 (10%), Method: PREINCUBATION
  mutagenic call: inactive; negative

## CC(O)CO (stereo not given)
[1]
  mutagenic call: inactive; negative
[2]
  mutagenic call: inactive; negative
[3]
  mutagenic call: inactive; negative
[4]
  mutagenic call: inactive; negative
[5]
  mutagenic call: inactive; negative
[7]
  mutagenic call: inactive; negative
[8]
  mutagenic call: inactive; negative
[9]
  mutagenic call: inactive; negative
[10]
  mutagenic call: inactive; negative
[11]
  mutagenic call: inactive; negative
[12]
  mutagenic call: inactive; negative
[13]
  mutagenic call: inactive; negative

## COC1OC(=O)C(Cl)=C1C(Cl)Cl (stereo not given)
[6]
  mutagenic call: active; positive
